# In US4769447A, “Gamma-Glutamyl-4-azoanilides” (Boehringer Mannheim GmbH, priority 1986, dated 1988):
# Where a name gives a salt, the structure may show the parent alone.
# How the values were obtained:
# [1] = Absorption maxima (λmax., Δλmax.) and extinction coefficient of substrates and liberated coloured materials; type: physicochemical; details: for λmax. (coloured material): coloured material liberated from the substrate; for Δλmax. = λmax. (coloured material) - λmax. (substrate): difference of the absorption maxima
# Text: Thus, for example, the difference of the absorption maxima of the known substrate γ-glutamyl-3-carboxy-4-nitroanilide (λmax. 317 nm) and of the coloured material obtained therefrom, i.e. 3-carboxy-4-nitroaniline(λmax. 380 nm) is 63 nm. In contradistinction thereto, the compounds according to the present invention of general formula (I) display substantially greater differences between the absorption spectra of the substrate and of the coloured material liberated enzymatically therefrom. As a rule, this difference is from 80 to 110 nm.
# Δλmax. hereby means the difference between λmax. (coloured material)-λmax. (substrate).
# [2] = tested on: γ-GT; assay: Determination of the activity of γ-GT at 25° and 37° C. with S1 and L-Glupa C in human serum pools and control serum; type: biochemical; details: control serum PPU 516; 25° C.
# Description: (§1) 21.78 g. Glycylglycine were dissolved in about 900 ml. distilled water, the pH was adjusted to 7.9 with 2N aqueous sodium hydroxide solution, the amount of substrate calculated for a concentration of 1 mmole/liter was dissolved therein and the solution made up to 1000 ml. with distilled water. End concentration in the test:
# (§2) 2.0 ml. of the reagent described in (a) was pipetted into a cuvette, tempered to 25° C. and mixed with 0.2 ml. of sample. The extinction increase per minute was measured at an apropriate wavelength.
# (§3) One international unit (U) is the enzyme activity which converts 1 μmole of substrate per minute at 25° C. The activity of the γ-glutamyl transferase in U/liter in the sample is calculated according to the following equation: [formula] wherein ΔE/min is the extinction increase at an appropriate wavelength per minute, V is the batch volume in ml., v is the sample volume in ml., ε is the extinction coefficient in cm^2 μmol^-1 and d is the layer thickness of the cuvette in cm.
# (§4) The substrates used were L-Glupa C and S1.
# [3] = biological target: T1, γ-GT (Homo sapiens, UniProt P19440); assay: as above; type: biochemical; details: 25° C.
# T1 construct: in three mixtures of human sera; from tissue; host or cells: human serum (three pools of different activity); also a control serum of unstated origin
# T1 sequence (P19440 1-380 limits assumed): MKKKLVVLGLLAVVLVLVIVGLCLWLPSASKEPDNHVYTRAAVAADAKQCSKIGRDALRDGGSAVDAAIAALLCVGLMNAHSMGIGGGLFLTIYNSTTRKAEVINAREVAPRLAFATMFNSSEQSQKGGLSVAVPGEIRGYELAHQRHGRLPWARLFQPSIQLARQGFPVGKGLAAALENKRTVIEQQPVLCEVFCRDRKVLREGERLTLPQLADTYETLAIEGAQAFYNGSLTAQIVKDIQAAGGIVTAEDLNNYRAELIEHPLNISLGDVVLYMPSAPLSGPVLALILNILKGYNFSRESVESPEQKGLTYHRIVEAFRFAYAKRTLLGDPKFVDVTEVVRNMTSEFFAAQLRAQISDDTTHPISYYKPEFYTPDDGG
# T1 sequence (P19440 381-569 limits assumed): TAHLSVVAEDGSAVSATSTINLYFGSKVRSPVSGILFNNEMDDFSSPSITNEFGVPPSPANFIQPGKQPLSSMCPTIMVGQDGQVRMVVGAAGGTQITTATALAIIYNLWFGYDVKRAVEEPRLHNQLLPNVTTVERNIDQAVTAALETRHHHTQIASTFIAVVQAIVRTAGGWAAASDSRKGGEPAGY
# Description: as §1, §2, §3, §4
# [4] = tested on: γ-GT; assay: as above; type: biochemical; details: control serum PPU 516
# [5] = biological target: T1, γ-GT; assay: as above; type: biochemical
# [6] = biological target: T2, γ-glutamyl transferase (γ-GT) (Homo sapiens, UniProt P19440); assay: Determination of the activity of γ-glutamyl transferase in a control serum at 25° C. with different substrates; type: biochemical; details: for extinction coefficient: at the measurement wavelength: 546 nm (S1, S8, S9), 578 nm (S5), 405 nm (L-Glupa C); for γ-GT activity found in control serum (U/liter at 25° C.): same control serum, substrate 1 mmole/liter, glycylglycine 150 mmole/liter, pH 7.9
# T2 construct: host or cells: control serum
# T2 sequence (P19440 381-569 limits assumed): as above
# T2 sequence (P19440 1-380 limits assumed): as the sequence (P19440 1-380 limits assumed) above
# Description: as §1, §2, §3
# [7] = routine use; cited from earlier work
Compound,λmax. (substrate) [1] [nm],Δλmax. = λmax. (coloured material) - λmax. (substrate) [1] [nm],extinction coefficient [6] [cm^2 μmol^-1],γ-GT activity found in control serum (U/liter at 25° C.) [6] [U/liter],other results
2-Amino-5-[[4-(2-cyano-4-nitrophenyl)-azo-3-(2-carboxyethoxy)-phenyl]-amino]-5-oxopentanoic acid diammonium salt [S2],414,–,–,–,–
"Nc1ccc([N+](=O)[O-])c(C(=O)O)c1 [3-carboxy-4-nitroaniline, reference compound]",–,–,–,–,λmax. (coloured material) [1]: 380 nm
"N[C@@H](CCC(=O)Nc1ccc([N+](=O)[O-])c(C(=O)O)c1)C(=O)O [L-Glupa C, L-γ-glutamyl-3-carboxy-4-nitroanilide, reference compound]",317,63,9.5,128,"γ-GT activity, control serum PPU 516 [2]: 139 U/l.; γ-GT activity, human serum pool 1 [3]: 35 U/l.; γ-GT activity, human serum pool 2 [3]: 63 U/l.; γ-GT activity, human serum pool 3 [3]: 190 U/l.; γ-GT activity, control serum PPU 516 [4]: 211 U/l.; γ-GT activity, human serum pool 1 [5]: 57 U/l.; γ-GT activity, human serum pool 2 [5]: 106 U/l.; γ-GT activity, human serum pool 3 [5]: 323 U/l."
"N.N.N#Cc1cc([N+](=O)[O-])ccc1N=Nc1ccc(NC(=O)CCC(N)C(=O)O)cc1CCC(=O)O (centres unmarked) [S1, 2-Amino-5-[[4-(2-cyano-4-nitrophenyl)-azo-3-(2-carboxyethyl)-phenyl]-amino]-5-oxopentanoic acid diammonium salt]",394,94,7.8,144,"γ-GT activity, control serum PPU 516 [2]: 134 U/l.; γ-GT activity, human serum pool 1 [3]: 42 U/l.; γ-GT activity, human serum pool 2 [3]: 76 U/l.; γ-GT activity, human serum pool 3 [3]: 220 U/l.; γ-GT activity, control serum PPU 516 [4]: 268 U/l.; γ-GT activity, human serum pool 1 [5]: 96 U/l.; γ-GT activity, human serum pool 2 [5]: 176 U/l.; γ-GT activity, human serum pool 3 [5]: 490 U/l."
"NC(CCC(=O)Nc1ccc(N=Nc2ccc([N+](=O)[O-])cc2)c(C(=O)O)c1)C(=O)O (centres unmarked) [S3, 2-amino-5-[(3-carboxyl-4-(4-nitrophenyl)-azophenyl]-amino]-5-oxopentnoic acid diammonium salt]",314,–,–,–,–
"N.N.NC(CCC(=O)Nc1ccc(N=Nc2cc(Cl)c([N+](=O)[O-])cc2Cl)c(OCC(=O)O)c1)C(=O)O (centres unmarked) [S4, 2-Amino-5-[[4-(2,5-dichloro-4-nitrophenyl)-azo-3-(carboxymethoxy)-phenyl]-amino]-5-oxopentanoic acid diammonium salt]",402,–,–,–,–
"Cc1c(C#N)sc(N=Nc2ccc(NC(=O)CCC(N)C(=O)O)cc2CCC(=O)O)c1C#N.N.N (centres unmarked) [S5, 2-Amino-5-[[3-(2-carboxyethyl)-4-(2,4-dicyano-3-methyl-5-thienyl)-azophenyl]-amino]-5-oxopentanoic acid diammonium salt]",424,106,8.9,77,–
"Cc1c(C#N)sc(N=Nc2ccc(NC(=O)CCC(N)C(=O)O)cc2OCC(=O)O)c1C#N.N.N (centres unmarked) [S6, 2-Amino-5-[[3-carboxymethoxy-4-(2,4-dicyano-3-methyl-5-thienyl)-azophenyl]-amino]-5-oxopentanoic acid diammonium salt]",448,–,–,–,–
"Cc1cc(NC(=O)CCC(N)C(=O)O)ccc1N=Nc1nc(C)c(C(=O)O)s1 (centres unmarked) [S7, 2-Amino-5-[[4-(5-carboxy-4-methyl-2-thiazolyl)-3-methylazophenyl]-amino]-5-oxopentanoic acid diammonium salt]",412,–,–,–,–
"Cc1nc(N=Nc2ccc(NC(=O)CCC(N)C(=O)O)cc2CCC(=O)O)sc1C#N.N.N (centres unmarked) [S8, 2-Amino-5-[[3-(2-carboxyethyl)-4-(5-cyano-4-methyl-2-thiazolyl)-azophenyl]-amino]-5-oxopentanoic acid diammonium salt]",420,100,25.2,101,–
"N.N.NC(CCC(=O)Nc1ccc(N=Nc2nccs2)c(CCC(=O)O)c1)C(=O)O (centres unmarked) [S9, 2-Amino-5-[[3-(2-carboxyethyl)-4-(2-thiazolyl)azophenyl]amino]-5-oxopentanoic acid diammonium salt]",394,–,2.8,160,–
"C[n+]1ccsc1N=Nc1ccc(NC(=O)CCC(N)C(=O)[O-])cc1CCC(=O)O.N (centres unmarked) [S10, 2-Amino-5-[[3-(2-carboxylatoethyl)-4-(3-methylthiazolium-2-yl)-azophenyl]-amino]-5-oxopentanoic acid ammonium salt]",402,–,–,–,λmax. (coloured material) [1]: 486 nm; ε (coloured material) ([1]; printed after λmax. (coloured material)=486 nm): 15.5 cm^2 μmol^-1
"N.N.NC(CCC(=O)Nc1ccc(N=Nc2snc3cc([N+](=O)[O-])ccc23)c(OCC(=O)O)c1)C(=O)O (centres unmarked) [S11, 2-Amino-5-[[3-carboxymethoxy-4-(6-nitro-2,1-benzisothiazol-3-yl)-azophenyl]-amino]-5-oxopentanoic acid diammonium salt]",453,107,–,–,–
"CCCCSc1nnc(N=Nc2ccc(NC(=O)CCC(N)C(=O)O)cc2OCC(=O)O)s1 (centres unmarked) [S12, 2-Amino-5-[[4-(2-butylthio-1,3,4-thiadiazol-5-yl)-3-carboxymethoxyazophenyl]-amino]-5-oxopentanoic acid diammonium salt]",424,–,–,–,–
"CCOc1ccc2nc(N=Nc3ccc(NC(=O)CCC(N)C(=O)O)cc3OCC(=O)O)sc2c1.N.N (centres unmarked) [S13, 2-Amino-5-[[3-carboxymethoxy-4-(6-ethoxy-2-benzothiazolyl)-azophenyl]-amino]-5-oxopentanoic acid diammonium salt]",449,–,–,–,–
NC(CCC(=O)Nc1ccc([N+](=O)[O-])cc1)C(=O)O (centres unmarked) [γ-glutamyl-p-nitroanilide],–,–,–,–,solubility (known substrate) [7]: poor solubility; stability (known substrate) [7]: instability
